{"source": "patent US20230150951A1", "about": "“2,5- OR 2,6-DISUBSTITUTED HYDROQUINONE DERIVATIVES WITH AT LEAST ONE CARBOXY, SULFO OR AMIDO GROUP USEFUL AS MEDICAMENTS” (OM PHARMA SA, priority 2020, published 2023)", "type_in_all_cases": "cell-based", "key": {"FGF-2": {"biological_target": "T1, FGF-2 (Homo sapiens, UniProt P09038)", "T1 construct": "purchased Peprotech 100-18C", "T1 sequence (P09038 134-288)": "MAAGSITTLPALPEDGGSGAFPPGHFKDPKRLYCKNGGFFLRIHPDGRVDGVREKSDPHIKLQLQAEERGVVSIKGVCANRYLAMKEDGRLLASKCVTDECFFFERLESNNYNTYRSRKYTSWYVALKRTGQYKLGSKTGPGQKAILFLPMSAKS", "experiment": "FGF-2 induced sprouting of HUVEC, spheroid-based cellular angiogenesis assay", "conditions": "FGF-2 25 ng/mL preincubated with compound, 24 h", "summary_of_the_method": "(§1)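 Compound (final 100 down to 1.56×10^−6 M) was mixed with growth factor (final 25 ng/mL) for 30 min at 37°C, then added onto collagen-embedded 400-cell HUVEC spheroids.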"}, "FGF-1": {"biological_target": "T2, FGF-1 (Homo sapiens, UniProt P05230)", "T2 construct": "purchased Peprotech 100-17A", "T2 sequence (P05230 whole entry)": "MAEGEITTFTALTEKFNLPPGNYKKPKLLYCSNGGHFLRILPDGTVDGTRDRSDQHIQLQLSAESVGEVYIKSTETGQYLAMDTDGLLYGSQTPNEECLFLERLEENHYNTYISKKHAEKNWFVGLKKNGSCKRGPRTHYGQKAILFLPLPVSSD", "experiment": "FGF-1 induced sprouting of HUVEC, spheroid-based cellular angiogenesis assay", "conditions": "FGF-1 25 ng/mL preincubated with compound, 24 h", "summary_of_the_method": "as §1"}, "Human neutrophils": {"system": "Human neutrophils", "experiment": "Neutrophil adhesion under static conditions", "conditions": "fMLP-stimulated adhesion to fibrinogen; method: 40 μM and 80 μM, concentration of the value not stated", "summary_of_the_method": "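Donor buffy-coat neutrophils (3×10^6/ml, PBS with Ca/Mg, 10% FCS, pH 7.2) preincubated 30 min at 37° C with 40 μM or 80 μM compound, then stimulated 1 min at 37° C with 1 nM fMLP on fibrinogen-coated glass. Adherent cells fixed and counted by computer; mean ± SD, unpaired t-test.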"}}}
{"smiles": "O=C(O)c1cc(O)c(C(=O)Nc2ccccc2C(=O)O)cc1O", "note": "[Ia-001a, 4-(2-carboxyphenylaminocarbonyl)-2,5-dihydroxybenzoic acid]", "values": [{"measurement": "IC50", "setting": "FGF-2", "value": 39, "unit": "µM"}, {"measurement": "IC50", "setting": "FGF-1", "value": 41, "unit": "µM"}, {"measurement": "Neutrophil adhesion inhibition", "setting": "Human neutrophils", "value": 44.3, "unit": "%"}]}
{"smiles": "O=C(O)Cc1cc(O)c(C(=O)Nc2c(C(=O)O)cccc2C(=O)O)cc1O", "note": "[IIIa-013a, 2-(4-(carboxymethyl)-2,5-dihydroxybenzamido)isophthalic acid]", "values": [{"measurement": "IC50", "setting": "FGF-2", "value": 31, "unit": "µM"}, {"measurement": "IC50", "setting": "FGF-1", "value": 17, "unit": "µM"}, {"measurement": "Neutrophil adhesion inhibition", "setting": "Human neutrophils", "value": 30.667, "unit": "%"}]}
{"smiles": "O=C(Nc1ccccc1-c1nnn[nH]1)c1cc(O)c(C(=O)Nc2ccccc2-c2nnn[nH]2)cc1O", "note": "[Ic-001aTz2, N1,N4-bis(2-(1H-tetrazol-5-yl)phenyl)-2,5-dihydroxyterephthalamide]", "values": [{"measurement": "IC50", "setting": "FGF-2", "value": 70, "unit": "µM"}, {"measurement": "IC50", "setting": "FGF-1", "value": "≥ 200", "unit": "µM"}, {"measurement": "Neutrophil adhesion inhibition", "setting": "Human neutrophils", "value": 97.15, "unit": "%"}]}
{"smiles": "COC(=O)c1cc(OC(C)=O)cc(CS(=O)(=O)Cc2cc(OC(C)=O)cc(C(=O)OC)c2OC(C)=O)c1OC(C)=O", "note": "[IVc-059a-E2-A4]", "values": [{"measurement": "IC50", "setting": "FGF-2", "value": "≥ 200", "unit": "µM"}, {"measurement": "IC50", "setting": "FGF-1", "value": 54, "unit": "µM"}, {"measurement": "Neutrophil adhesion inhibition", "setting": "Human neutrophils", "value": 87.5, "unit": "%"}]}
{"smiles": "O=C(O)c1cc(O)cc(CS(=O)(=O)Cc2cc(O)cc(C(=O)O)c2O)c1O", "note": "[IVc-059a, 3-((2,5-Dihydroxy-3-carboxyphenyl)methylsulfonylmethyl)-2,5-dihydroxybenzoic acid]", "values": [{"measurement": "IC50", "setting": "FGF-2", "value": 2.7, "unit": "µM"}, {"measurement": "IC50", "setting": "FGF-1", "value": 6.7, "unit": "µM"}, {"measurement": "Neutrophil adhesion inhibition", "setting": "Human neutrophils", "value": 10, "unit": "%"}]}
{"smiles": "O=C(O)c1cc(O)c(C(=O)Nc2ccc(-c3nnn[nH]3)cc2)cc1O", "note": "[Ia-003a-Tz, 4-(4-(1H-tetrazol-5-yl)phenyl-aminocarbonyl)-2,5-dihydroxybenzoic acid]", "values": [{"measurement": "IC50", "setting": "FGF-2", "value": 45, "unit": "µM"}, {"measurement": "IC50", "setting": "FGF-1", "value": 6.7, "unit": "µM"}, {"measurement": "Neutrophil adhesion inhibition", "setting": "Human neutrophils", "value": 30.33, "unit": "%"}]}
{"smiles": "O=C(O)c1cc(NC(=O)c2cc(O)c(C(=O)O)cc2O)cc(NC(=O)c2cc(O)c(C(=O)O)cc2O)c1", "note": "[Ib-010a, 3,5-bis(2,5-dihydroxy-4-carboxybenzoylamino)benzoic acid]", "values": [{"measurement": "IC50", "setting": "FGF-2", "value": 3.8, "unit": "µM"}, {"measurement": "IC50", "setting": "FGF-1", "value": 14, "unit": "µM"}, {"measurement": "Neutrophil adhesion inhibition", "setting": "Human neutrophils", "value": 1.5, "unit": "%"}]}
{"smiles": "CC(=O)N(Cc1cc(O)c(C(=O)O)cc1O)Cc1cc(O)c(C(=O)O)cc1O", "note": "[IIIc-057a, N,N-Bis(4-carboxy-2,5-dihydroxyphenylmethyl)acetamide]", "values": [{"measurement": "IC50", "setting": "FGF-2", "value": 77, "unit": "µM"}, {"measurement": "IC50", "setting": "FGF-1", "value": 87, "unit": "µM"}, {"measurement": "Neutrophil adhesion inhibition", "setting": "Human neutrophils", "value": 40.04, "unit": "%"}]}
{"smiles": "O=C(O)c1cc(O)c(C(=O)Nc2ccccc2-c2nnn[nH]2)cc1O", "note": "[Ia-001a-Tz, 4-(2-(1H-tetrazol-5-yl)phenyl-aminocarbonyl)-2,5-dihydroxybenzoic acid]", "values": [{"measurement": "IC50", "setting": "FGF-2", "value": 20, "unit": "µM"}, {"measurement": "IC50", "setting": "FGF-1", "value": 6.2, "unit": "µM"}, {"measurement": "Neutrophil adhesion inhibition", "setting": "Human neutrophils", "value": 69.75, "unit": "%"}]}
{"smiles": "O=C(O)c1cc(O)cc(CSCc2cc(O)cc(C(=O)O)c2O)c1O", "note": "[IVc-058a, 3-((2,5-Dihydroxy-3-carboxyphenyl)methylthiomethyl)-2,5-dihydroxybenzoic acid]", "values": [{"measurement": "IC50", "setting": "FGF-2", "value": 4.9, "unit": "µM"}, {"measurement": "IC50", "setting": "FGF-1", "value": 36, "unit": "µM"}, {"measurement": "Neutrophil adhesion inhibition", "setting": "Human neutrophils", "value": 43.5, "unit": "%"}]}
{"smiles": "O=C(O)Cc1cc(O)c(C(=O)Nc2ccccc2-c2nnn[nH]2)cc1O", "note": "[IIIa-001aTz]", "values": [{"measurement": "IC50", "setting": "FGF-2", "value": 14, "unit": "µM"}, {"measurement": "IC50", "setting": "FGF-1", "value": 51, "unit": "µM"}, {"measurement": "Neutrophil adhesion inhibition", "setting": "Human neutrophils", "value": 39.74, "unit": "%"}]}
{"smiles": "O=C(O)c1cc(NC(=O)c2cc(O)c(C(=O)Nc3ccccc3-c3nnn[nH]3)cc2O)ccc1O", "note": "[Ic-001a-Tz/004a, 5-(4-(2-(1H-tetrazol-5-yl)phenylaminocarbonyl)-2,5-dihydroxybenzamido)-2-hydroxy benzoic acid]", "values": [{"measurement": "IC50", "setting": "FGF-2", "value": 87, "unit": "µM"}, {"measurement": "IC50", "setting": "FGF-1", "value": 19, "unit": "µM"}, {"measurement": "Neutrophil adhesion inhibition", "setting": "Human neutrophils", "value": 96.99, "unit": "%"}]}
{"smiles": "O=C(O)c1cc(O)c(C(=O)Nc2ccccc2S(=O)(=O)O)cc1O", "note": "[Ia-001c, 2,5-dihydroxy-4-(2-sulfophenylaminocarbonyl)benzoic acid]", "values": [{"measurement": "IC50", "setting": "FGF-2", "value": 13, "unit": "µM"}, {"measurement": "IC50", "setting": "FGF-1", "value": 21, "unit": "µM"}, {"measurement": "Neutrophil adhesion inhibition", "setting": "Human neutrophils", "value": 31.33, "unit": "%"}]}
{"smiles": "O=C(O)c1cc(NC(=O)c2cc(O)c(C(=O)O)cc2O)cc(C(=O)O)c1", "note": "[Ia-015a, 5-(4-carboxy-2,5-dihydroxybenzamido)isophthalic acid]", "values": [{"measurement": "IC50", "setting": "FGF-2", "value": 9.3, "unit": "µM"}, {"measurement": "IC50", "setting": "FGF-1", "value": 20, "unit": "µM"}, {"measurement": "Neutrophil adhesion inhibition", "setting": "Human neutrophils", "value": 17.38, "unit": "%"}]}
{"smiles": "CCOC(=O)c1cc(NC(=O)c2cc(O)c(C(=O)OCC)cc2O)cc(NC(=O)c2cc(O)c(C(=O)OCC)cc2O)c1", "note": "[Ib-010a-E3, ethyl 3,5-bis(2,5-dihydroxy-4-ethoxycarbonylbenzoylamino)benzoate]", "values": [{"measurement": "IC50", "setting": "FGF-1", "value": 26, "unit": "µM"}, {"measurement": "Neutrophil adhesion inhibition", "setting": "Human neutrophils", "value": 79.5, "unit": "%"}]}
{"smiles": "O=C(O)c1cc(O)c(CN(Cc2cc(O)c(C(=O)O)cc2O)Cc2cc(O)c(C(=O)O)cc2O)cc1O", "note": "[IIIc-061a, Tris(4-carboxy-2,5-dihydroxyphenylmethyl)amine]", "values": [{"measurement": "IC50", "setting": "FGF-2", "value": 7.6, "unit": "µM"}, {"measurement": "Neutrophil adhesion inhibition", "setting": "Human neutrophils", "value": 58.69, "unit": "%"}]}
{"smiles": "O=C(O)c1cc(NC(=O)c2cc(O)c(C(=O)Nc3ccc(O)c(C(=O)O)c3)cc2O)ccc1O", "note": "[Ic-007a, 5-(4-(3-carboxy-4-hydroxyphenylaminocarbonyl)-2,5-dihydroxybenzamido)-2-hydroxy benzoic acid]", "values": [{"measurement": "IC50", "setting": "FGF-1", "value": 13, "unit": "µM"}, {"measurement": "Neutrophil adhesion inhibition", "setting": "Human neutrophils", "value": 57.5, "unit": "%"}]}
{"smiles": "O=C(O)c1cc(O)ccc1NC(=O)c1cc(O)cc(C(=O)Nc2ccc(O)cc2C(=O)O)c1O", "note": "[IIc-009a, 2-(3-(2-carboxy-4-hydroxyphenylaminocarbonyl)-2,5-dihydroxybenzamido)-5-hydroxyl benzoic acid]", "values": [{"measurement": "IC50", "setting": "FGF-1", "value": 30, "unit": "µM"}, {"measurement": "Neutrophil adhesion inhibition", "setting": "Human neutrophils", "value": 53.15, "unit": "%"}]}
{"smiles": "O=C(O)c1cc(NC(=O)c2cc(O)cc(C(=O)Nc3ccc(O)c(C(=O)O)c3)c2O)ccc1O", "note": "[IIc-007a, 5-(3-(3-carboxy-4-hydroxyphenylaminocarbonyl)-2,5-dihydroxybenzamido)-2-hydroxy benzoic acid]", "values": [{"measurement": "IC50", "setting": "FGF-2", "value": 91, "unit": "µM"}, {"measurement": "IC50", "setting": "FGF-1", "value": 11, "unit": "µM"}, {"measurement": "Neutrophil adhesion inhibition", "setting": "Human neutrophils", "value": 64.61, "unit": "%"}]}
{"smiles": "O=C(O)c1ccccc1CNC(=O)c1cc(O)cc(C(=O)O)c1O", "note": "[IIa-053a, 3-(2-Carboxyphenylmethylaminocarbonyl)-2,5-dihydroxybenzoic acid]", "values": [{"measurement": "IC50", "setting": "FGF-2", "value": 18, "unit": "µM"}, {"measurement": "IC50", "setting": "FGF-1", "value": 84, "unit": "µM"}, {"measurement": "Neutrophil adhesion inhibition", "setting": "Human neutrophils", "value": 20, "unit": "%"}]}
